According to patent US8119692B2 (priority 2007, dated 2012):

Target: Lethal factor protease (Bacillus anthracis, UniProt P15917)
Assay: biochemical
Settings: LF (FRET) Ki^app

Chain of Lethal factor protease (P15917 34-809 limits assumed): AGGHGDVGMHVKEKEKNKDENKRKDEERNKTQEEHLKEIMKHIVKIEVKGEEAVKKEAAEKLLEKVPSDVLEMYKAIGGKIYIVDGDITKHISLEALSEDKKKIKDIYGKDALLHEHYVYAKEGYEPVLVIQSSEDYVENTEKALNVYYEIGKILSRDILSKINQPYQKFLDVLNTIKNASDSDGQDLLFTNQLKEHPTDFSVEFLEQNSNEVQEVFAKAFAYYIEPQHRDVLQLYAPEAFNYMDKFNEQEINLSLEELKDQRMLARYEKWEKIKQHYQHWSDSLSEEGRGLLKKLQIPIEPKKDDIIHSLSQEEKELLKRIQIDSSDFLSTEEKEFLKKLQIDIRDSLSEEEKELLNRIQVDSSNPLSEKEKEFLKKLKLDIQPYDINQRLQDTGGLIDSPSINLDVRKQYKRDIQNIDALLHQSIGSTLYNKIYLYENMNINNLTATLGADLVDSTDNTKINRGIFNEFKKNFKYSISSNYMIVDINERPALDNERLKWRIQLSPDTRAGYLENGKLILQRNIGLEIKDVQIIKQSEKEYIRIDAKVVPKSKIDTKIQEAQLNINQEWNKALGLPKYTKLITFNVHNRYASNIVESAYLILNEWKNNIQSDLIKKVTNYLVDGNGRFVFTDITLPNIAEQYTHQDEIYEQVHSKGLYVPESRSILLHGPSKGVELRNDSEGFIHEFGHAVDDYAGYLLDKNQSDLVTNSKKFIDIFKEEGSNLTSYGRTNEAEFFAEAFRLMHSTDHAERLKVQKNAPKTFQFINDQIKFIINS

Q: With `O=C(CCC(O)c1ccc(F)cc1)NO` (racemic) [Compound 166976, 4-(4-fluorophenyl)-N,4-dihydroxybutanamide] as the compound, how does the Ki read?
A: 138 µM

Q: Which Ki does the source give for `O=C(CCC(OCc1ccccc1)c1ccc(F)cc1)NO` (racemic) [Compound 167151, 4-(benzyloxy)-4-(4-fluorophenyl)-N-hydroxybutanamide] here?
A: 130 µM

Q: With `CCOC(CCC(=O)NO)c1ccc(F)cc1` (racemic) [Compound 167173, 4-ethoxy-4-(4-fluorophenyl)-N-hydroxybutanamide] as the compound, how does the Ki read?
A: 171 µM

Q: `CSC(CCC(=O)NO)c1ccc(F)cc1` (racemic) [Compound 167366, 4-(4-Fluoro-phenyl)-N-hydroxy-4-methylsulfanyl-butyramide] was tested. Which Ki did it give?
A: 10.9 µM

Q: For `COC(CCC(=O)NO)c1ccc(F)cc1` (stereo not shown) [Compound 167157, 4-(4-fluorophenyl)-N-hydroxy-4-methoxybutanamide], which Ki is on record?
A: 11.7 µM

Q: How did the Ki turn out when `CO[C@H](CCC(=O)NO)c1ccc(F)cc1` [Compound 167204, (R)-4-(4-fluorophenyl)-N-hydroxy-4-methoxybutanamide] was run?
A: 7.9 µM

Q: For `CO[C@@H](CCC(=O)NO)c1ccc(F)cc1` [Compound 167205, (S)-4-(4-fluorophenyl)-N-hydroxy-4-methoxybutanamide], which Ki is on record?
A: 225 µM

Q: How did the Ki turn out when `O=C(CC[C@@H](O)c1ccc(F)cc1)NO` [Compound 167206, (R)-4-(4-fluorophenyl)-N,4-dihydroxybutanamide] was run?
A: 66.1 µM

Q: For `CO[C@H](CCC(=O)NO)c1ccc(F)c(C)c1` [Compound 167223, (R)-4-(4-fluoro-3-methylphenyl)-N-hydroxy-4-methoxybutanamide], which Ki is on record?
A: 11.9 µM

Q: Which Ki does the source give for `COC(CCC(=O)NO)c1ccc(F)c(C)c1` (stereo not shown) [Compound 167232, 4-(4-fluoro-3-methylphenyl)-N-hydroxy-4-methoxybutanamide] here?
A: 8.9 µM

Q: Which Ki does the source give for `COC(CC(Cc1ccccc1)C(=O)NO)c1ccc(F)cc1` (stereo not shown) [Compound 167285] here?
A: > 300 µM

Q: `COC(CC(Cc1ccccc1)C(=O)NO)c1ccc(F)cc1` (stereo not shown) [Compound 167286, 2-Benzyl-4-(4-fluorophenyl)-N-hydroxy-4-methoxy-butyramide] was tested. Which Ki did it give?
A: 168 µM

Q: For `COC(CC(C)C(=O)NO)c1ccc(F)cc1` (stereo not shown) [Compound 167288, 4-(4-Fluoro-phenyl)-N-hydroxy-4-methoxy-2-methyl-butyramide], which Ki is on record?
A: 3.1 µM

Q: For `CO[C@H](C[C@H](C)C(=O)NO)c1ccc(F)cc1` [Compound 167297, (2S,4R)-4-(4-fluorophenyl)-N-hydroxy-4-methoxy-2-methylbutanamide], which Ki is on record?
A: 2.3 µM

Q: How did the Ki turn out when `CO[C@H](C[C@H](Cc1ccccc1)C(=O)NO)c1ccc(F)cc1` [Compound 167298] was run?
A: 89.5 µM

Q: `COC(CC(CCc1ccccc1)C(=O)NO)c1ccc(F)cc1` (stereo not shown) [Compound 167308, 4-(4-fluorophenyl)-N-hydroxy-4-methoxy-2-phenethylbutanamide] was tested. Which Ki did it give?
A: 2.4 µM

Q: With `CCCC[C@@H](C[C@@H](OC)c1ccc(F)cc1)C(=O)NO` [Compound 167336, (S)-2-((R)-2-(4-fluorophenyl)-2-methoxyethyl)-N-hydroxyhexanamide] as the compound, how does the Ki read?
A: 1.9 µM

Q: How did the Ki turn out when `CO[C@H](C[C@H](CCCc1ccccc1)C(=O)NO)c1ccc(F)cc1` [Compound 167337, (2S)-2-((2R)-2-(4-fluorophenyl)-2-methoxyethyl)-N-hydroxy-5-phenylpentanamide] was run?
A: 7.8 µM

Q: For `CO[C@@H](C[C@@H](CCCc1ccccc1)C(=O)NO)c1ccc(F)cc1` [Compound 167341, (2R)-2-((2S)-2-(4-fluorophenyl)-2-methoxyethyl)-N-hydroxy-5-phenylpentanamide], which Ki is on record?
A: 18 µM

Q: `CCCC[C@H](C[C@@H](OC)c1ccc(F)cc1)C(=O)NO` [Compound 167353, (2R)-2-((2R)-2-(4-fluorophenyl)-2-methoxyethyl)-N-hydroxyhexanamide] was tested. Which Ki did it give?
A: 5.8 µM

Q: `CO[C@H](C[C@H](C/C=C/c1ccccc1)C(=O)NO)c1ccc(F)cc1` [Compound 167354] was tested. Which Ki did it give?
A: 9.3 µM

Q: Which Ki does the source give for `CO[C@H](C[C@H](C/C=C/C(c1ccccc1)c1ccccc1)C(=O)NO)c1ccc(F)cc1` [Compound 167371, (2S,4E)-2-((2R)-2-(4-fluorophenyl)-2-methoxyethyl)-N-hydroxy-6,6-diphenylhex-4-enamide] here?
A: 14 µM

Q: `CCCC[C@H](C[C@H](OC)c1ccc(F)cc1)C(=O)NO` [Compound 167389, (2R)-2-((2S)-2-(4-fluorophenyl)-2-methoxyethyl)-N-hydroxyhexanamide] was tested. Which Ki did it give?
A: 75.6 µM

Q: Which Ki does the source give for `CCCC[C@@H](C[C@H](OC)c1ccc(F)cc1)C(=O)NO` [Compound 167390, (25)-2-((2S)-2-(4-fluorophenyl)-2-methoxyethyl)-N-hydroxyhexanamide] here?
A: 224 µM

Q: Which Ki does the source give for `CO[C@H](C[C@@H](CCCc1ccccc1)C(=O)NO)c1ccc(F)cc1` [Compound 167395, (2R)-2-((2R)-2-(4-fluorophenyl)-2-methoxyethyl)-N-hydroxy-5-phenylpentanamide] here?
A: 78.6 µM

Q: `CO[C@@H](C[C@H](CCCc1ccccc1)C(=O)NO)c1ccc(F)cc1` [Compound 167408] was tested. Which Ki did it give?
A: > 300 µM

Q: How did the Ki turn out when `CCC[C@@H](C[C@@H](OC)c1ccc(F)cc1)C(=O)NO` [Compound 167432, (S)-2-((R)-2-(4-fluorophenyl)-2-methoxyethyl)-N-hydroxypentanamide] was run?
A: 1.57 µM

Q: Which Ki does the source give for `CO[C@H](C[C@H](CC1CC1)C(=O)NO)c1ccc(F)cc1` [Compound 167433, (2S,4R)-2-(cyclopropylmethyl)-4-(4-fluorophenyl)-N-hydroxy-4-methoxybutanamide] here?
A: 1.4 µM

Q: For `C=CC[C@@H](C[C@@H](OC)c1ccc(F)cc1)C(=O)NO` [Compound 167434, (2S)-2-((2R)-2-(4-fluorophenyl)-2-methoxyethyl)-N-hydroxypent-4-enamide], which Ki is on record?
A: 1.16 µM

Q: With `COC(CCC(=O)NO)c1cccc(F)c1` (stereo not shown) [Compound 167456, 4-(3-fluorophenyl)-N-hydroxy-4-methoxybutanamide] as the compound, how does the Ki read?
A: 51.6 µM

Q: For `COc1ccc(C(CCC(=O)NO)OC)cc1` (stereo not shown) [Compound 167457, N-hydroxy-4-methoxy-4-(4-methoxyphenyl)butanamide], which Ki is on record?
A: 193 µM

Q: `COc1cccc(C(CCC(=O)NO)OC)c1` (stereo not shown) [Compound 167458, N-hydroxy-4-methoxy-4-(3-methoxyphenyl)butanamide] was tested. Which Ki did it give?
A: 276 µM

Q: With `COC(CCC(=O)NO)c1ccc(Cl)cc1` (stereo not shown) [Compound 167460, 4-(4-chlorophenyl)-N-hydroxy-4-methoxybutanamide] as the compound, how does the Ki read?
A: 52.3 µM

Q: How did the Ki turn out when `COC(CCC(=O)NO)c1cccc(Cl)c1` (stereo not shown) [Compound 167461, 4-(3-chlorophenyl)-N-hydroxy-4-methoxybutanamide] was run?
A: 87.4 µM

Q: `COC(CCC(=O)NO)c1ccc(C)c(F)c1` (stereo not shown) [Compound 167463, 4-(3-fluoro-4-methylphenyl)-N-hydroxy-4-methoxybutanamide] was tested. Which Ki did it give?
A: 65.6 µM

Q: Which Ki does the source give for `COC(CCC(=O)NO)c1cccc(C)c1` (stereo not shown) [Compound 167491, N-hydroxy-4-methoxy-4-m-tolylbutanamide] here?
A: 176 µM

Q: With `COC(CCC(=O)NO)c1cccc(C(F)(F)F)c1` (stereo not shown) [Compound 167492, N-hydroxy-4-methoxy-4-(3-(trifluoromethyl)phenyl)butanamide] as the compound, how does the Ki read?
A: > 300 µM

Q: Which Ki does the source give for `COC(CCC(=O)NO)c1cccc(C)c1C` (stereo not shown) [Compound 167495, 4-(2,3-dimethylphenyl)-N-hydroxy-4-methoxybutanamide] here?
A: 269 µM

Q: `COC(CCC(=O)NO)c1ccc(-c2ccccc2)cc1` (stereo not shown) [Compound 167506, 4-(biphenyl-4-yl)-N-hydroxy-4-methoxybutanamide] was tested. Which Ki did it give?
A: 85.1 µM

Q: Which Ki does the source give for `COC(CCC(=O)NO)c1ccc(C(F)(F)F)cc1` (stereo not shown) [Compound 167511, N-hydroxy-4-methoxy-4-(4-(trifluoromethyl)phenyl)butanamide] here?
A: 240 µM

Q: How did the Ki turn out when `COC(CCC(=O)NO)c1ccccc1C` (stereo not shown) [Compound 167540, N-hydroxy-4-methoxy-4-o-tolylbutanamide] was run?
A: 152 µM

Q: `COC(CCC(=O)NO)c1ccc(C)cc1C` (stereo not shown) [Compound 167541, 4-(2,4-dimethylphenyl)-N-hydroxy-4-methoxybutanamide] was tested. Which Ki did it give?
A: 134 µM

Q: How did the Ki turn out when `COC(CCC(=O)NO)c1ccccc1F` (stereo not shown) [Compound 167564, 4-(2-fluorophenyl)-N-hydroxy-4-methoxybutanamide] was run?
A: 52.4 µM

Q: How did the Ki turn out when `C=CC[C@H](C[C@@H](OC)c1ccc(F)c(C)c1)C(=O)NO` [Compound 167672, (2R)-2-((2R)-2-(4-fluoro-3-methylphenyl)-2-methoxyethyl)-N-hydroxypent-4-enamide] was run?
A: 42 µM

Q: With `C=CC[C@@H](C[C@@H](OC)c1ccc(F)c(C)c1)C(=O)NO` [Compound 167673, (S)-2-((R)-2-(4-Fluoro-3-methylphenyl)-2-methoxyethyl)-N-hydroxypent-4-enamide] as the compound, how does the Ki read?
A: 6.6 µM

Q: With `CCC[C@H](C[C@@H](OC)c1ccc(F)c(C)c1)C(=O)NO` [Compound 167674, (2R)-2-((2R)-2-(4-fluoro-3-methylphenyl)-2-methoxyethyl)-N-hydroxypentanamide] as the compound, how does the Ki read?
A: 24 µM

Q: With `CCC[C@@H](C[C@@H](OC)c1ccc(F)c(C)c1)C(=O)NO` [Compound 167675, (2S)-2-((2R)-2-(4-fluoro-3-methylphenyl)-2-methoxyethyl)-N-hydroxypentanamide] as the compound, how does the Ki read?
A: 2.6 µM

Q: With `CO[C@H](C[C@H](CCN(Cc1ccccc1)C(C)C)C(=O)NO)c1ccc(F)cc1` [Compound 167784, (2S,4R)-2-(2-(benzyl(isopropyl)amino)ethyl)-4-(4-fluorophenyl)-N-hydroxy-4-methoxybutanamide] as the compound, how does the Ki read?
A: 14 µM

Q: With `CO[C@H](C[C@H](CCN(C)Cc1ccccc1)C(=O)NO)c1ccc(F)cc1` [Compound 167785, (2S,4R)-2-(2-(benzyl(methyl)amino)ethyl)-4-(4-fluorophenyl)-N-hydroxy-4-methoxybutanamide] as the compound, how does the Ki read?
A: 2 µM

Q: For `CO[C@H](C[C@H](CCN(C)Cc1ccc(F)cc1)C(=O)NO)c1ccc(F)cc1` [Compound 167795, (2S,4R)-2-(2-((4-fluorobenzyl)(methyl)amino)ethyl)-4-(4-fluorophenyl)-N-hydroxy-4-methoxybutanamide], which Ki is on record?
A: 2.1 µM

Q: With `CO[C@H](C[C@H](CCN(c1ccccc1)c1ccccc1)C(=O)NO)c1ccc(F)cc1` [Compound 167796, (2S)-(2-Diphenylamino-ethyl)-(4R)-(4-fluoro-phenyl)-N-hydroxy-4-methoxy-butyramide] as the compound, how does the Ki read?
A: 2.1 µM

Q: With `CCCCN(C)CC[C@@H](C[C@@H](OC)c1ccc(F)cc1)C(=O)NO` [Compound 167828, (2S,4R)-2-(2-(butyl(methyl)amino)ethyl)-4-(4-fluorophenyl)-N-hydroxy-4-methoxybutanamide] as the compound, how does the Ki read?
A: 1.1 µM
